According to US20260007712A1, “COMPOSITION FOR PREVENTING, AMELIORATING OR TREATING PERIODONTAL DISEASES” (NUTRACORE CO., LTD., priority 2022, published 2026):

Assays:
Format in all cases: in vivo
[1] = test system: periodontal bone loss (alveolar bone loss); experiment: Periodontal bone loss rate, tooth neck ligation rat periodontal disease (EPD) model; settings: EPD rats; extracts 200 mg/kg, IND 5 mg/kg, oral once daily for 10 days from 24 h after ligation; FIG. 3
Description: (§1) In this study, as part of the development of functional food ingredients derived from natural products to improve periodontitis and periodontal bone damage, three types of natural product extracts, dried rehmanniae radix, wasabi leaf, and Sancho extracts, that are well known for various physiological activities, including anti-inflammatory and antioxidant effects were compared and explored using a tooth neck ligation rat periodontal disease (experimental periodontitis; EPD) model to investigate the efficacy against periodontitis and periodontal bone loss.
(§2) Specifically, a total of 121 SPF/VAF Outbred Crl:CD [SD] male rats (OrientBio, Seungnam, Korea) were obtained, and after acclimatization for 7 days, experimental animals with a constant body weight were selected, and 10 animals per group were divided and tested in 7 groups below (normal medium control group: average 248.90±8.23 g, 236.00˜261.00 g; EPD-induced group: average 248.14±9.85 g, 219.00˜272.00 g). […]
(§3) Daily body weight was measured from 1 day before ligation, periodontal bone loss rate was measured on the final sacrifice day, some gingival tissue was extracted, changes in IL-1β, TNF-α, and MDA content were observed. The number of infiltrating inflammatory cells in the gingival tissue, periodontal bone volume (alveolar bone volume), and collagen content in the gums were measured.

[2] = test system: periodontal bone mass (alveolar bone volume); experiment: Periodontal bone mass (alveolar bone volume), EPD rat model; settings: EPD rats; extracts 200 mg/kg, IND 5 mg/kg, oral once daily for 10 days; FIG. 4
Description: as §1, §2, §3

[3] = test system: infiltrating inflammatory cells in gingival tissue; experiment: Number of infiltrating inflammatory cells in gingival tissue, EPD rat model; settings: EPD rats; extracts 200 mg/kg, IND 5 mg/kg, oral once daily for 10 days; FIG. 5
Description: as §1, §2, §3

[4] = test system: collagen fibers in gingival tissue; experiment: Collagen fiber content in gingival tissue, EPD rat model; settings: EPD rats; extracts 200 mg/kg, IND 5 mg/kg, oral once daily for 10 days; FIG. 6
Description: as §1, §2, §3

IL-1β = IL-1β content in gingival tissue, EPD rat model; settings: EPD rats; extracts 200 mg/kg, IND 5 mg/kg, oral once daily for 10 days; top of FIG. 7
Description: as §1, §2, §3

TNF-α = TNF-α content in gingival tissue, EPD rat model; settings: EPD rats; extracts 200 mg/kg, IND 5 mg/kg, oral once daily for 10 days; bottom of FIG. 7
Description: as §1, §2, §3

MDA = MDA content in gingival tissue, EPD rat model; settings: EPD rats; extracts 200 mg/kg, IND 5 mg/kg, oral once daily for 10 days; FIG. 8
Description: as §1, §2, §3

COc1ccc2c(c1)c(CC(=O)O)c(C)n2C(=O)c1ccc(Cl)cc1 [IND, Indomethacin]
change in periodontal bone loss rate compared to the EPD control group [1]: −26.49%
change in periodontal bone mass compared to the EPD control group [2]: 188.14%
change in number of infiltrating inflammatory cells in gingival tissue compared to the EPD control group [3]: −57.61%
change in proportion of collagen fibers in gingival tissue compared to the EPD control group [4]: 148.65%
change in IL-1β content in gingival tissue compared to the EPD control group (IL-1β): −54.75%
change in TNF-α content in gingival tissue compared to the EPD control group (TNF-α): −50.46%
change in MDA content in gingival tissue compared to the EPD control group (MDA): −42.44%
